Experimental data published in US4877881A, “Process of preparing pyrazoles, isoxazoles and analogs thereof having activity as 5-lipoxygenase inhibitors” (Warner-Lambert Company, priority 1988, dated 1989).

Assays:
cyclooxygenase = biological target: T1, cyclooxygenase (Rattus norvegicus, UniProt Q63921); experiment: ARBC Whole Cell Cyclooxygenase Assay in RBL-1 cells (PGF2α RIA); assay type: cell-based; conditions: RBL-1 intact cell cyclooxygenase; A23187 5 μM
T1 construct: RBL-1 intact cell cyclooxygenase IC50 values; endogenous in cells; host or cells: RBL-1 rat basophilic leukemia cells (American Type Culture Collection)
T1 sequence (Q63921 27-602): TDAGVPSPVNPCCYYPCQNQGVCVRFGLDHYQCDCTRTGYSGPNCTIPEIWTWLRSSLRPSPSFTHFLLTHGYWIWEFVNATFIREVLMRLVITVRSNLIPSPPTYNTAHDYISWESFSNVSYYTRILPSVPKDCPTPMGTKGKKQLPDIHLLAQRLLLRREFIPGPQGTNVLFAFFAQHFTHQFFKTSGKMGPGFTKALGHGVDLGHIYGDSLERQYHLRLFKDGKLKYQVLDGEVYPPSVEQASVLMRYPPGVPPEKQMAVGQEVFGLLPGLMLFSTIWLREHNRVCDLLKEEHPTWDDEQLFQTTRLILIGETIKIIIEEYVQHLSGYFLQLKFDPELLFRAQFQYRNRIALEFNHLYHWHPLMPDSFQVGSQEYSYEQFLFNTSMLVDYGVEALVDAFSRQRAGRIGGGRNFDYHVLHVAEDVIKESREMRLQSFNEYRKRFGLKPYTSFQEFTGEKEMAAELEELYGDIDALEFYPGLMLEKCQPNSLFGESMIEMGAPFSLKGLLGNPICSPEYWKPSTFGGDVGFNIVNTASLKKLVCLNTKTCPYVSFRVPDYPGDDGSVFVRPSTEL
Protocol: (§1) ARBL/ARBC Whole Cell 5-Lipoxygenase and Cyclooxygenase Assays
(§2) The rat basophilic leukemia cell line (RBL-1) was obtained from the American Type Culture Collection (Rockville, Md.).
(§3) Radioimmuno assay (RIA) kits of LTB4 and PGF2α were obtained from Amersham (Arlington Heights, Ill.) and Seragen (Boston, Mass.) respectively.
(§4) All tissue culture media were obtained from GIBO (Gran Island, N.Y.).
(§5) RBL-1 cells were grown in culture (suspension) in Eagle's minimum essential medium supplemented with 12% fetal bovine serum and 1:100 antibiotic-antimycotic mixture at 37° C. in an incubator supplied with air-5% carbon dioxide. Cells were harvested by centrifugation. They were washed with cold phosphate buffered saline pH 7.4 (PBS; NaCl, 7.1 g; Na2 HOP4, 1.15 g; KH2 PO4, 0.2 g; and KCl, 0.2 g/L). […] Calcium ionophore A23187 (5 μM) was added and cells were incubated for seven minutes at 37° C. The reaction was stopped by chilling the tubes in ice for ten minutes. Cells were separated by centrifugation and the supernatant was stored at -20°. Aliquots (100 μl) were analyzed for LTB4 and PGF2α using radioimmuno assay kits as provided by the supplier.

5-lipoxygenase = biological target: T2, 5-lipoxygenase (Rattus norvegicus, UniProt P12527); experiment: ARBL Whole Cell 5-Lipoxygenase Assay in RBL-1 cells (LTB4 RIA); assay type: cell-based; conditions: RBL-1 intact cell 5-lipoxygenase; A23187 5 μM
T2 construct: ARBL/ARBC Whole Cell 5-Lipoxygenase and Cyclooxygenase Assays; endogenous in cells; host or cells: RBL-1 rat basophilic leukemia cells (American Type Culture Collection)
T2 sequence (P12527 1-673): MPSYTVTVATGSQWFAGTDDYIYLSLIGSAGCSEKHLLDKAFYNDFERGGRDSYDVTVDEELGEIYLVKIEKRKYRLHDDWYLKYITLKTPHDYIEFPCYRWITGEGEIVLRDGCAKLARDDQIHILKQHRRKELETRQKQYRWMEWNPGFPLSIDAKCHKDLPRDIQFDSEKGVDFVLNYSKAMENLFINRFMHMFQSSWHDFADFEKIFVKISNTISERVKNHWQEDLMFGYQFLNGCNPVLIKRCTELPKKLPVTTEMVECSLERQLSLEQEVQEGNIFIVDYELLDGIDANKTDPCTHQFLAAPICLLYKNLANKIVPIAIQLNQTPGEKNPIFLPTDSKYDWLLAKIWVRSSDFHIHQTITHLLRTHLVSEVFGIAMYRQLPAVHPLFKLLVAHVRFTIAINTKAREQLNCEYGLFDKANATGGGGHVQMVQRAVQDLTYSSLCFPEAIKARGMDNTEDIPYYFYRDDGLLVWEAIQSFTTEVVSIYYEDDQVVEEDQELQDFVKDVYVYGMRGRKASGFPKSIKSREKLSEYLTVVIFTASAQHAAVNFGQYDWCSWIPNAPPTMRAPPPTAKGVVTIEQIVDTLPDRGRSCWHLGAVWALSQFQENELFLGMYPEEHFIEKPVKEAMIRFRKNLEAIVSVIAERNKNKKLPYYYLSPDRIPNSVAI
Protocol: as §1, §2, §3, §4, §5

Row | IC50 (cyclooxygenase) | IC50 (5-lipoxygenase) | Structure (SMILES)
1 | 2.5 µM | 1.6 µM | COc1cc(C=Cc2cc(C=Cc3ccc(O)c(OC)c3)[nH]n2)ccc1O [Example 1, 3,5-Bis[β-(4'-hydroxy-3'-methoxyphenyl)ethenyl]pyrazole]
2 | 6.8 µM | 9.5 µM | Cc1cc(C=Cc2ccc(O)c(Cl)c2)n[nH]1 [Example 7, 3-[β-(4'-Hydroxy-3'-chlorophenyl)ethenyl]-5-methylpyrazole]
3 | 13 µM | 0.8 µM | COc1cc(C=Cc2cc(C)n[nH]2)ccc1O [Example 5, 3-[β-(4'-Hydroxy-3'-methoxyphenyl)ethenyl]-5-methylpyrazole]
